Measurements as given in US10392368B2, “Pyrazolo and triazolo bicyclic compounds as JAK kinase inhibitors” (THERAVANCE BIOPHARMA R&D IP, LLC, priority 2017, dated 2019).

What was measured:
JAK2 = target: T1, JAK2 (Homo sapiens, UniProt O60674); test: Biochemical JAK2 kinase assay (LanthaScreen); settings: for Ki: read-out: JAK 2 (pKi) (converted)
T1 construct: GST; purchased Life Technologies
In short: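 GST-tagged recombinant JAK2 pre-incubated 1 h at ambient temperature with compound and GFP-STAT1 peptide in HEPES pH 7.5/MgCl2 buffer, then ATP added for a 1 h reaction with 1% DMSO. TR-FRET read after EDTA and Tb-anti-pSTAT1 (pTyr701) addition; IC50 from 4-parameter fit, converted to pKi by Cheng-Prusoff.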

Tyk2 = target: T2, Tyk2 (Homo sapiens, UniProt P29597); test: Biochemical Tyk2 kinase assay (LanthaScreen); settings: for Ki: read-out: Tyk 2 (pKi) (converted)
T2 construct: GST; purchased Life Technologies
T2 sequence (P29597 whole entry): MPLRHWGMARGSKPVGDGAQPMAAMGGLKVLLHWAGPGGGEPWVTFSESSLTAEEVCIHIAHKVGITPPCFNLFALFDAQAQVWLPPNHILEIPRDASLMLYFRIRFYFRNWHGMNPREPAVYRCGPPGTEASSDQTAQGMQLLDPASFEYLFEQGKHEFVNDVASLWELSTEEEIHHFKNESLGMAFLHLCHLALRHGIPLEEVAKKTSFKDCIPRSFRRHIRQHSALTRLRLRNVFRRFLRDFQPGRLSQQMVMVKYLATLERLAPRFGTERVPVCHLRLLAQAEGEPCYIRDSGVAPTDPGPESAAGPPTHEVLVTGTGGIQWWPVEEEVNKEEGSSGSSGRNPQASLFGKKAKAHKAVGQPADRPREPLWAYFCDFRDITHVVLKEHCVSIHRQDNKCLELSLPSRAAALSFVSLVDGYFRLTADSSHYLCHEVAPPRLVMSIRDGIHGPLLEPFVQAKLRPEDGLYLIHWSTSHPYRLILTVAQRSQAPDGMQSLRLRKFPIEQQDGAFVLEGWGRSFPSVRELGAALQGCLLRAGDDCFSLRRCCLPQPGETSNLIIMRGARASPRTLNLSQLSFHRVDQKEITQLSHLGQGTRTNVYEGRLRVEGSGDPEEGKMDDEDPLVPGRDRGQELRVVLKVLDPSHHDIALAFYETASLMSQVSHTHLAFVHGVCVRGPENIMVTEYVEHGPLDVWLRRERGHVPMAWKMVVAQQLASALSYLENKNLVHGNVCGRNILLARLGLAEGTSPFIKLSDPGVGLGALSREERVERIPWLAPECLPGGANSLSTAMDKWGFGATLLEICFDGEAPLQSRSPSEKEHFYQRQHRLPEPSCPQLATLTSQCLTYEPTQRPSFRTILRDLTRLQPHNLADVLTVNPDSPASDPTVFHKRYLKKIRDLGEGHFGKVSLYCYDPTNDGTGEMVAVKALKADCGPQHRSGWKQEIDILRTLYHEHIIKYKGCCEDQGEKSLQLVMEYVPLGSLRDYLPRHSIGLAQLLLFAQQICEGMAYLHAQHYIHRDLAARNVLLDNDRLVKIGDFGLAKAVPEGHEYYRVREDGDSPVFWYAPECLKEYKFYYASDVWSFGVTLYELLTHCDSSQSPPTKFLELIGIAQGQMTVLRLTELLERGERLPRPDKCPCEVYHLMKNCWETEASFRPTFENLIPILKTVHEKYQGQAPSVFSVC
In short: (§1)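 Recombinant GST-tagged JAK enzymes with GFP-STAT1 peptide substrate in 50 mM HEPES pH 7.5, 10 mM MgCl2, 1 mM EGTA, 0.01% Brij-35; compounds pre-incubated 1 h, then ATP added, 1 h reaction at ambient temperature. TR-FRET (Tb-anti-pSTAT1 pTyr701, 520/495 nm) after EDTA stop; IC50 by 4-parameter fit, converted to pKi via Cheng-Prusoff.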

JAK3 = target: T3, JAK3 (Homo sapiens, UniProt P52333); test: Biochemical JAK3 kinase assay (LanthaScreen); parameters: GST; purchased Life Technologies; settings: for Ki: read-out: JAK 3 (pKi) (converted); for JAK3 (pKi)-JAK1 (pKi): selectivity JAK3 over JAK1, difference of pKi
T3 sequence (P52333 1-1124): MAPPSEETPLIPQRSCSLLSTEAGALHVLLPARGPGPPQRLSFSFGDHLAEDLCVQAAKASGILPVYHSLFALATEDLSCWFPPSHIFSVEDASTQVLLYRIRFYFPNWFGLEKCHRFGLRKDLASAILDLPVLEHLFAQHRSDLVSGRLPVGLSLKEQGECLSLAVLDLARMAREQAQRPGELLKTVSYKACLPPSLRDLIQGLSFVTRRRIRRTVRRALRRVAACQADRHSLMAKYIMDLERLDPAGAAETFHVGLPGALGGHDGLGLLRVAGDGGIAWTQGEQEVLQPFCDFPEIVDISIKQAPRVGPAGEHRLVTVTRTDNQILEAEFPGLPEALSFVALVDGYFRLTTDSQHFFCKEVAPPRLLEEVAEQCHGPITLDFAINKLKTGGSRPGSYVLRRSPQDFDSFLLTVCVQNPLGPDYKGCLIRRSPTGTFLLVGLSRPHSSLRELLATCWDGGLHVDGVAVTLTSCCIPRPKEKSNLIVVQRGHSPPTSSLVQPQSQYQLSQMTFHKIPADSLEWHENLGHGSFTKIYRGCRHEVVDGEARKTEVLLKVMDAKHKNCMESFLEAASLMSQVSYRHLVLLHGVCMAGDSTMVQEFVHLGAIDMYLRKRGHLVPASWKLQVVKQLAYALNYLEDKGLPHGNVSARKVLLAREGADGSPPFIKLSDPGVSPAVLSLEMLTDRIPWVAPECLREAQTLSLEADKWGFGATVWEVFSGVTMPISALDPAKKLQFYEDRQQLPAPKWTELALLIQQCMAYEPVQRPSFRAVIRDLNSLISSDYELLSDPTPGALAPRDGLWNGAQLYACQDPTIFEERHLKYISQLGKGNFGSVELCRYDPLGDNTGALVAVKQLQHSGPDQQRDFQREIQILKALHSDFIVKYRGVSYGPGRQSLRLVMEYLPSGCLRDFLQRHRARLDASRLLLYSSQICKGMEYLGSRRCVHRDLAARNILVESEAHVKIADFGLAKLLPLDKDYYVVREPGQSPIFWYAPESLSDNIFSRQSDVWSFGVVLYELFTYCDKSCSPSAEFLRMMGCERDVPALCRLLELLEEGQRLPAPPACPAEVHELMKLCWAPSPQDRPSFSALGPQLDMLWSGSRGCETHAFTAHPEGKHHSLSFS
In short: as §1

JAK1 = target: T4, JAK1 (Homo sapiens, UniProt P23458); test: Biochemical JAK1 kinase assay (LanthaScreen); settings: for Ki: read-out: JAK 1 (pKi) (converted)
T4 construct: GST; purchased Life Technologies
T4 sequence (P23458 whole entry): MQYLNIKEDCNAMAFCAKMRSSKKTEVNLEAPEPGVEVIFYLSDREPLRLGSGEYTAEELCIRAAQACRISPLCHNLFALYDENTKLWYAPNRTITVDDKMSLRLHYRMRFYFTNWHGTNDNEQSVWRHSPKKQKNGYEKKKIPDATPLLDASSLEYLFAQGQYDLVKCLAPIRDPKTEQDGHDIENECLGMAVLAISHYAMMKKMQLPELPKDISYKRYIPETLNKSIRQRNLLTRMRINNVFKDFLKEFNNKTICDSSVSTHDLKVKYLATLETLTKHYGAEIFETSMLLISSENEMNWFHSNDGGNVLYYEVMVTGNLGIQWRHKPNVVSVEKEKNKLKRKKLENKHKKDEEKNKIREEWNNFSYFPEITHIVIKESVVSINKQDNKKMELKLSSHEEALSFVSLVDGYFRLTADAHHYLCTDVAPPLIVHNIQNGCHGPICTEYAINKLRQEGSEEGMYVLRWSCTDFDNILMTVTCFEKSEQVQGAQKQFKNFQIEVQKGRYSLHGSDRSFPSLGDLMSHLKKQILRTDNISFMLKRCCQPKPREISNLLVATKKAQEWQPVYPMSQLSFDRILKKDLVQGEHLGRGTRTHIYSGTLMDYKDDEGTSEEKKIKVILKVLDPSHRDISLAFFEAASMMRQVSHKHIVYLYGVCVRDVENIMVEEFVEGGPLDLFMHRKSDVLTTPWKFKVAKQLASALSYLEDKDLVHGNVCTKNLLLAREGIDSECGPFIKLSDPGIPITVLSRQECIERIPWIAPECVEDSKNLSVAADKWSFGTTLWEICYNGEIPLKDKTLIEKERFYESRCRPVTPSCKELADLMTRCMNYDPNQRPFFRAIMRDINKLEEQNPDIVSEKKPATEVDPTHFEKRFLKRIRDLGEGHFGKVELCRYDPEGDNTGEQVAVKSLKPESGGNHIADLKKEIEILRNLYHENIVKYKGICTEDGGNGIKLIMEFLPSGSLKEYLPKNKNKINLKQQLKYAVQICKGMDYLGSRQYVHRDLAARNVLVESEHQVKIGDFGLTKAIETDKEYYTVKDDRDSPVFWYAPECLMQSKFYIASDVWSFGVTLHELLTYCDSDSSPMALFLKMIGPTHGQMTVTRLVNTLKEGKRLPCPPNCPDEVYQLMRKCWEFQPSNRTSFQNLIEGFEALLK
In short: as §1

[1] = tested on: IL-2 stimulated pSTAT5 in Tall-1 T cells; test: Cellular JAK3 potency assay: inhibition of IL-2 stimulated pSTAT5 in Tall-1 T cells; type: cell-based, human; settings: for IC50: Homo sapiens, TALL-1, IL-2 stimulated pSTAT5, Tall-1 T cells, read-out: Tall-1 (pIC50) (converted); for Tall-1 (pIC50): IL-2 stimulated pSTAT5, Tall-1 T cells
In short: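 In human Tall-1 T cells, IL-2 (300 ng/ml final, 30 min) drives STAT5 phosphorylation after a 1 h compound pretreatment. Lysates are assayed for pSTAT5 by AlphaLisa, and IC50 derived from signal versus concentration is expressed as pIC50.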

T1 sequence (O60674 whole entry): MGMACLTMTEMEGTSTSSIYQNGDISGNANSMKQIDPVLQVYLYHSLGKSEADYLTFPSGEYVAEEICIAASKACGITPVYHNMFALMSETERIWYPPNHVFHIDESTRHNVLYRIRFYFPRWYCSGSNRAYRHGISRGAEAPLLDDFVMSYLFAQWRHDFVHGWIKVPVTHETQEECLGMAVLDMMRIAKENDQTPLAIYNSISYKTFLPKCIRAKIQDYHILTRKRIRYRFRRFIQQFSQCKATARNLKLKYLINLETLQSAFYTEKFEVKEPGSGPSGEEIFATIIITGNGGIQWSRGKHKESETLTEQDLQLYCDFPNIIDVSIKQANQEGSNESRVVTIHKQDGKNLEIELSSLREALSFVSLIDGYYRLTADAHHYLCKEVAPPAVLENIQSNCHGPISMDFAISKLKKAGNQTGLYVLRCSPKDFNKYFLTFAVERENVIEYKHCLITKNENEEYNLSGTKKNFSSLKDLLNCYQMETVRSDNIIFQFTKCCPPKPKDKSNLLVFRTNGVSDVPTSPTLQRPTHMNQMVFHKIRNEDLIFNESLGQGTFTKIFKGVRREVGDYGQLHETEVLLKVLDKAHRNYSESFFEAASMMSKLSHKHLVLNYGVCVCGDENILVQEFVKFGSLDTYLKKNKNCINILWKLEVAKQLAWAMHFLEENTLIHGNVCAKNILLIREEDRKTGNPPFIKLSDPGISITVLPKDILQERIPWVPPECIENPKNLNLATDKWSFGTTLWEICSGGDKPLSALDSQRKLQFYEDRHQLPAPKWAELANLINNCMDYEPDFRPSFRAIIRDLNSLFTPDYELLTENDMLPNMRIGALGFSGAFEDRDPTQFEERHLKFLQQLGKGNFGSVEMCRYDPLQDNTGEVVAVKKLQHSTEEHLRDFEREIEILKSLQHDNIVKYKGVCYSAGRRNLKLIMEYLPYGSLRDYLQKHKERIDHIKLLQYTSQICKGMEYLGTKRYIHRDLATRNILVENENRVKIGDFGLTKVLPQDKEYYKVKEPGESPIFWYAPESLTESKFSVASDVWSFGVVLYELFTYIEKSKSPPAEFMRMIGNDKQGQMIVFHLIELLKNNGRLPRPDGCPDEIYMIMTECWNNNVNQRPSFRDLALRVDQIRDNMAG

Row | Compound | Ki (JAK2) | Ki (Tyk2) | Ki (JAK3) | JAK3 (pKi)-JAK1 (pKi) (JAK3) | Ki (JAK1) | IC50 [1] | JAK 2 (pKi) (JAK2) | Tyk 2 (pKi) (Tyk2) | JAK 3 (pKi) (JAK3) | JAK 1 (pKi) (JAK1) | Tall-1 (pIC50) [1]
1 | C=CC(=O)N1CCC[C@@H](C(=O)Nc2cc(-c3ccc(O)cc3)cc3[nH]ncc23)[C@H]1C [Compound 12-57] | 10 to 100 nM | > 100 nM | 0.1 to 1 nM | A (a value of 3 or above) | > 100 nM | 31.6 to 200 nM | – | – | – | – | –
2 | C=CC(=O)N1CCC(F)(C(=O)Nc2cc(-c3ccc(O)cc3)cc3[nH]ncc23)CC1 [Compound 12-58] | 10 to 100 nM | > 100 nM | < 0.1 nM | A (a value of 3 or above) | > 100 nM | 31.6 to 200 nM | – | – | – | – | –
3 | C=CC(=O)N1C[C@H](C(=O)Nc2cc(-c3ccc(O)cc3)cc3[nH]ncc23)OC[C@@H]1C [Compound 12-60] | > 100 nM | > 100 nM | 0.1 to 1 nM | A (a value of 3 or above) | > 100 nM | 31.6 to 200 nM | – | – | – | – | –
4 | C=CC(=O)N1C[C@@H](C)O[C@@H](C(=O)Nc2cc(-c3ccc(O)cc3)cc3[nH]ncc23)C1 [Compound 12-61] | > 100 nM | > 100 nM | < 0.1 nM | A (a value of 3 or above) | > 100 nM | 31.6 to 200 nM | – | – | – | – | –
5 | C=CC(=O)N1CCOC[C@H]1C(=O)Nc1cc(-c2ccc(O)cc2)cc2[nH]ncc12 [Compound 12-63] | > 100 nM | > 100 nM | 0.1 to 1 nM | A (a value of 3 or above) | > 100 nM | 31.6 to 200 nM | – | – | – | – | –
6 | C=CC(=O)N1CCSC[C@H]1C(=O)Nc1cc(-c2ccc(O)cc2)cc2[nH]ncc12 [Compound 12-64] | > 100 nM | > 100 nM | < 0.1 nM | A (a value of 3 or above) | > 100 nM | < 31.6 nM | – | – | – | – | –
7 | CN(C)C/C=C/C(=O)N1CCSC[C@@H]1C(=O)Nc1cc(-c2ccc(O)cc2)cc2[nH]ncc12 [Compound 12-65] | > 100 nM | > 100 nM | 0.1 to 1 nM | A (a value of 3 or above) | > 100 nM | 200 to 1000 nM | – | – | – | – | –
8 | C=CC(=O)N1CCSCC1C(=O)Nc1cc(-c2ccc(O)cc2)cc2[nH]ncc12 (stereo not drawn) [Compound 12-66] | > 100 nM | > 100 nM | 0.1 to 1 nM | A (a value of 3 or above) | > 100 nM | 31.6 to 200 nM | – | – | – | – | –
9 | CN(C)C/C=C/C(=O)N1CC(F)(C(=O)Nc2cc(-c3ccc(O)cc3)cc3[nH]ncc23)C1 [Compound 12-67] | > 100 nM | > 100 nM | 0.1 to 1 nM | A (a value of 3 or above) | > 100 nM | 31.6 to 200 nM | – | – | – | – | –
10 | C=CC(=O)N1CC(C)(C(=O)Nc2cc(-c3ccc(O)cc3)cc3[nH]ncc23)C1 [Compound 12-68] | > 100 nM | > 100 nM | 0.1 to 1 nM | A (a value of 3 or above) | > 100 nM | 200 to 1000 nM | – | – | – | – | –
11 | C=CC(=O)N1CC(CSc2cc(-c3ccc(O)c(Cl)c3)nc3[nH]ncc23)C1 [Compound 13-1] | – | – | – | A (a value of 3 or above) | – | – | E (a pKi value of 7 or below (Ki of 100 nM or above)) | E (a pKi value of 7 or below (Ki of 100 nM or above)) | B (a pKi value between 9 and 10 (Ki between 1 nM and 0.1 nM)) | E (a pKi value of 7 or below (Ki of 100 nM or above)) | B (a pIC50 value between 6.7 (included) and 7.5 (IC50 between 200 nM and 32 nM))
12 | C=CC(=O)N1CCO[C@@H](C(=O)Nc2cc(-c3ccc(O)c(Cl)c3)cc3[nH]ncc23)C1 [Compound 13-2] | – | – | – | A (a value of 3 or above) | – | – | E (a pKi value of 7 or below (Ki of 100 nM or above)) | E (a pKi value of 7 or below (Ki of 100 nM or above)) | B (a pKi value between 9 and 10 (Ki between 1 nM and 0.1 nM)) | E (a pKi value of 7 or below (Ki of 100 nM or above)) | A (a pIC50 value≥7.5 (IC50≤32 nM))
13 | CN(C)C/C=C/C(=O)N1CC(CSc2cc(-c3ccc(O)cc3)cc3[nH]ncc23)C1 [Compound 13-4] | – | – | – | A (a value of 3 or above) | – | – | D (a pKi value between 7 and 8 (Ki between 100 nM and 10 nM)) | E (a pKi value of 7 or below (Ki of 100 nM or above)) | A (a pKi value≥10 (Ki≤0.1 nM)) | E (a pKi value of 7 or below (Ki of 100 nM or above)) | B (a pIC50 value between 6.7 (included) and 7.5 (IC50 between 200 nM and 32 nM))
14 | CN(C)C/C=C/C(=O)N1CC(CSc2cc(-c3ccc(O)c(F)c3)cc3[nH]ncc23)C1 [Compound 13-5] | – | – | – | A (a value of 3 or above) | – | – | D (a pKi value between 7 and 8 (Ki between 100 nM and 10 nM)) | E (a pKi value of 7 or below (Ki of 100 nM or above)) | A (a pKi value≥10 (Ki≤0.1 nM)) | E (a pKi value of 7 or below (Ki of 100 nM or above)) | B (a pIC50 value between 6.7 (included) and 7.5 (IC50 between 200 nM and 32 nM))
15 | CN(C)C/C=C/C(=O)N1CC(CSc2cc(-c3ccc(O)c(Cl)c3)cc3[nH]ncc23)C1 [Compound 13-6] | – | – | – | A (a value of 3 or above) | – | – | E (a pKi value of 7 or below (Ki of 100 nM or above)) | E (a pKi value of 7 or below (Ki of 100 nM or above)) | A (a pKi value≥10 (Ki≤0.1 nM)) | E (a pKi value of 7 or below (Ki of 100 nM or above)) | A (a pIC50 value≥7.5 (IC50≤32 nM))
16 | C=CC(=O)N1CC(CSc2cc(-c3ccc(O)c(F)c3)cc3[nH]ncc23)C1 [Compound 13-7] | – | – | – | A (a value of 3 or above) | – | – | D (a pKi value between 7 and 8 (Ki between 100 nM and 10 nM)) | E (a pKi value of 7 or below (Ki of 100 nM or above)) | A (a pKi value≥10 (Ki≤0.1 nM)) | E (a pKi value of 7 or below (Ki of 100 nM or above)) | B (a pIC50 value between 6.7 (included) and 7.5 (IC50 between 200 nM and 32 nM))
17 | C=CC(=O)N1CC(CSc2cc(-c3ccc(O)c(Cl)c3)cc3[nH]ncc23)C1 [Compound 13-8] | – | – | – | A (a value of 3 or above) | – | – | E (a pKi value of 7 or below (Ki of 100 nM or above)) | E (a pKi value of 7 or below (Ki of 100 nM or above)) | B (a pKi value between 9 and 10 (Ki between 1 nM and 0.1 nM)) | E (a pKi value of 7 or below (Ki of 100 nM or above)) | A (a pIC50 value≥7.5 (IC50≤32 nM))
18 | C=CC(=O)N1CC(CSc2cc(-c3ccc(O)cc3)nc3[nH]ncc23)C1 [Compound 13-9] | – | – | – | A (a value of 3 or above) | – | – | E (a pKi value of 7 or below (Ki of 100 nM or above)) | E (a pKi value of 7 or below (Ki of 100 nM or above)) | B (a pKi value between 9 and 10 (Ki between 1 nM and 0.1 nM)) | E (a pKi value of 7 or below (Ki of 100 nM or above)) | B (a pIC50 value between 6.7 (included) and 7.5 (IC50 between 200 nM and 32 nM))
